Experimental data: PubChem BioAssay (NCI)
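Results reflect a 48-hour exposure of cells in 96-well plates to compound at five concentrations. At the TGI there is no net growth.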 Where a SMILES comes first, the peptide text is derived from it. The star is where a group is joined. Cbz = O=C(OCc1ccccc1)*; NHNH2 = NN*

Columns and labels:
Assay in all cases: inhibition of tumour cell growth, NCI panel, 48 h
[1] = system: SK-MEL-5 melanoma
[2] = system: 786-0 renal
[3] = system: SK-MEL-28 melanoma
[4] = system: NCI-H23 lung
[5] = system: NCI-H522 lung
[6] = system: UACC-62 melanoma
[7] = system: PC-3 prostate
[8] = system: NCI/ADR-RES ovarian
[9] = system: MDA-MB-231 breast
[10] = system: MDA-MB-435

Compound | TGI [1] [µM] | TGI [2] [µM] | TGI [3] [µM] | TGI [4] [µM] | TGI [5] [µM] | TGI [6] [µM] | TGI [7] [µM] | TGI [8] [µM] | TGI [9] [µM] | TGI [10] [µM]
CCCN(CCC)c1c([N+](=O)[O-])cc(C(=O)N(CCO)CCO)cc1[N+](=O)[O-] | > 100 | > 100 | > 100 | > 100 | > 100 | – | – | – | – | –
NC(=Nc1cccc(Cl)c1)c1ccccc1N | > 100 | > 100 | > 100 | > 100 | > 100 | > 100 | > 100 | > 100 | > 100 | > 100
CCOC(=O)CCC(NC(=O)OCc1ccccc1)C(=O)NC(CCC(=O)OCC)C(=O)NN (configuration not stated) (Cbz-Glu(OEt)-Glu(OEt)-NHNH2; configuration not given here) | > 100 | > 100 | > 100 | – | – | > 100 | > 100 | – | > 100 | –
CNC(=O)OC(COC)CN1CCN(c2ccccc2C)CC1 (configuration not stated) | > 10 | > 10 | > 10 | > 10 | > 10 | > 10 | > 10 | > 10 | > 10 | > 10
COc1ccc(C(=O)N/N=C/c2c(C)n(C)n(-c3ccccc3)c2=O)cc1 | – | > 100 | > 100 | > 100 | > 100 | > 100 | – | – | – | –
CCCN1C(=O)/C(=C\c2ccc(OC)c(OC)c2)SC1=Nc1ccccc1 | > 100 | > 100 | > 100 | > 100 | > 100 | > 100 | > 100 | > 100 | > 100 | > 100
O=C1CCCCC/C1=C\c1ccccc1 | > 100 | > 100 | > 100 | > 100 | > 100 | > 100 | > 100 | – | > 100 | > 100
COc1cc2ccc1OCc1cccc(n1)COc1ccc(cc1OC)C=NCCNCCNCCN=C2 | > 100 | > 100 | – | > 100 | > 100 | > 100 | > 100 | > 100 | > 100 | > 100
COC(=O)[C@@H]1CC(C(CN)c2cn(C(=O)OC(C)(C)C)c3ccccc23)C(=O)N1C(=O)OC(C)(C)C (some centres not stated) | 31.6 | > 100 | 31.4 | > 100 | 95.8 | 28.8 | 80.2 | 55.8 | 58.6 | 50.7
N#CCN(CC#N)C1CC=CCC1N(CC#N)CC#N (configuration not stated) | > 100 | > 100 | – | > 100 | > 100 | > 100 | > 100 | > 100 | > 100 | > 100
S=C(N1CCN(c2cccc(Cl)c2)CC1)N1CCN(c2cccc(Cl)c2)CC1 | > 100 | > 100 | > 100 | > 100 | > 100 | > 100 | > 100 | > 100 | 58.8 | > 100
Nc1ccc(-c2nc3ccccc3s2)cc1C#Cc1ccccc1 | 31.1 | 32.3 | – | 52.6 | 34.2 | 33.9 | 45.4 | 48.6 | 47.8 | 36
CC[P+]1(c2ccccc2)[C@@H](C)CC[C@@H]1C | > 100 | > 100 | > 100 | > 100 | > 100 | > 100 | > 100 | > 100 | > 100 | > 100
N#C/C(N)=C(\C#N)N=CNc1ccc(N)cc1 | > 100 | > 100 | > 100 | > 100 | > 100 | > 100 | > 100 | > 100 | > 100 | > 100
CC1(C)CC(=O)c2c(nc3c(ccc4ccccc43)c2-c2ccc(NC(=O)CCCCC(=O)Nc3ccc(-c4c5c(nc6c4ccc4ccccc46)CC(C)(C)CC5=O)cc3)cc2)C1 | > 100 | > 100 | > 100 | – | > 100 | – | > 100 | 77.6 | 64.6 | > 100
CCOC(=O)C(C)c1nc2ccc(C(F)(F)F)cc2[nH]c1=O (configuration not stated) | > 100 | > 100 | > 100 | > 100 | – | > 100 | > 100 | > 100 | > 100 | > 100
CCOC(=O)c1cc(C2CCN(c3ccccc3)C2=O)c(C(=O)/C=C(/C)N)[nH]1 (configuration not stated) | > 100 | 21.8 | > 100 | > 100 | 53.1 | 40.1 | > 100 | > 100 | > 100 | > 100
CCn1c(=O)c2nc(SC)sc2n(-c2ccccc2)c1=O | > 100 | > 100 | > 100 | > 100 | > 100 | – | > 100 | > 100 | > 100 | > 100
C=CCOc1ccccc1C1(O)c2ccccc2C2=NCCCN21 (configuration not stated) | > 100 | > 100 | 52.2 | > 100 | – | > 100 | 57.2 | > 100 | > 100 | > 100
NC(Cc1ncccn1)C(=O)O (configuration not stated) | > 100 | > 100 | > 100 | > 100 | > 100 | > 100 | > 100 | > 100 | > 100 | > 100
Cc1cccc2c(N)c3cccc(C(=O)NCC[N+]4(Cc5ccc([N+](=O)[O-])cc5)CCOCC4)c3nc12 | > 100 | > 100 | > 100 | > 100 | > 84.9 | > 100 | > 100 | > 100 | > 86.2 | > 100
Nc1c2c(nc3ccccc13)-c1ccccc1NCCC2 | 28.6 | 32.4 | 51.1 | > 100 | 82.6 | 41.2 | > 100 | > 100 | 53.5 | 58.2
